Measurements: the supplement of paper PMC11061612

Experiments:
Assay in all cases: Bliss excess, mean over the matrix (fraction); higher = more synergy
[1] = test system: huH-1 (Hepatocellular Carcinoma)
How it was run: (§1)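 After 24 hours at 37°C and 5% CO2 in 1536-well plates, cells in DMEM/F12 or RPMI plus 10% FBS received two-drug dose matrices for 72 hours. Viability came from CellTiter-Glo 2.0 luminescence and was scaled as inhibition, anchored at 0 by vehicle wells and at 1 by blank wells. Combination Emax is taken as the second-highest inhibition in the matrix, and Bliss excess as the observed combination effect less EA + EB − EA·EB, with EA and EB the single-agent effects.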

A101D (Melanoma) = test system: A101D (Melanoma)
How it was run: as §1

[2] = test system: NCI-H716 (Colorectal Carcinoma)
How it was run: as §1

[3] = test system: JVM-2 (B-Cell Non-Hodgkin's Lymphoma)
How it was run: as §1

[4] = test system: HT55 (Colorectal Carcinoma)
How it was run: as §1

[5] = test system: 22RV1 (Prostate Carcinoma)
How it was run: as §1

[6] = test system: MDA-MB-436 (Breast Carcinoma)
How it was run: as §1

[7] = test system: A253 (Head and Neck Carcinoma)
How it was run: as §1

AU565 (Breast Carcinoma) = test system: AU565 (Breast Carcinoma)
How it was run: as §1

[8] = test system: NCI-H2087 (Lung Adenocarcinoma)
How it was run: as §1

A204 (Rhabdomyosarcoma) = test system: A204 (Rhabdomyosarcoma)
How it was run: as §1

769-P (Kidney Carcinoma) = test system: 769-P (Kidney Carcinoma)
How it was run: as §1

[9] = test system: GCT (Other Solid Carcinomas)
How it was run: as §1

[10] = test system: UACC-812 (Breast Carcinoma)
How it was run: as §1

[11] = test system: SW620 (Colorectal Carcinoma)
How it was run: as §1

[12] = test system: NCI-H2228 (Lung Adenocarcinoma)
How it was run: as §1

[13] = test system: CGTH-W-1 (Thyroid Gland Carcinoma)
How it was run: as §1

[14] = test system: LU-165 (Small Cell Lung Carcinoma)
How it was run: as §1

[15] = test system: CESS (Acute Myeloid Leukemia)
How it was run: as §1

[16] = test system: A2780 (Ovarian Carcinoma)
How it was run: as §1

| SMILES | Bliss excess [1] | Bliss excess (A101D (Melanoma)) | Bliss excess [2] | Bliss excess [3] | Bliss excess [4] | Bliss excess [5] | Bliss excess [6] | Bliss excess [7] | Bliss excess (AU565 (Breast Carcinoma)) | Bliss excess [8] | Bliss excess (A204 (Rhabdomyosarcoma)) | Bliss excess (769-P (Kidney Carcinoma)) | Bliss excess [9] | Bliss excess [10] | Bliss excess [11] | Bliss excess [12] | Bliss excess [13] | Bliss excess [14] | Bliss excess [15] | Bliss excess [16] |
| --- | --- | --- | --- | --- | --- | --- | --- | --- | --- | --- | --- | --- | --- | --- | --- | --- | --- | --- | --- | --- |
| CC(=O)Nc1cccc(-n2c(=O)n(C3CC3)c(=O)c3c(Nc4ccc(I)cc4F)n(C)c(=O)c(C)c32)c1 [Trametinib] + Cc1nc(-c2cn3c(n2)-c2ccc(-c4cnn(C(C)(C)C(N)=O)c4)cc2OCC3)n(C(C)C)n1 [Taselisib] (first compound max 1 µM, 7x7, partner max 10 µM) | 0.195 | 0.0168 | 0.325 | 0.0171 | -0.0116 | 0.0551 | 0.0567 | 0.145 | 0.102 | 0.163 | 0.149 | 0.0182 | 0.148 | 0.0522 | 0.0527 | 0.0724 | 0.174 | 0.0388 | 0.219 | 0.0164 |
| Cc1c2c(nn1C)CSCc1cc(n(C)n1)CSc1cc(c3ccccc3c1)OCCCc1c(C(=O)O)n(C)c3c-2c(Cl)ccc13 [AZD5991] + CN(C)CCCOc1ccc(-c2ccc3ncc4c(c3c2)n(C2CCOCC2)c(=O)n4C)cn1 [AZD0156] (first compound max 1 µM, 7x7, partner max 1 µM) | -0.0069 | -0.0801 | 0.0233 | -0.0266 | 0.0318 | -0.167 | -0.0369 | 0.0058 | 0.0204 | 0.005 | 0.0048 | -0.0089 | 0.0338 | 0.0465 | 0.0345 | -0.0096 | -0.0151 | 0.0147 | -0.026 | -0.0094 |
| CCc1c2c(nc3ccc(O)cc13)-c1cc3c(c(=O)n1C2)COC(=O)[C@]3(O)CC [SN-38] + CN(C)CCCOc1ccc(-c2ccc3ncc4c(c3c2)n(C2CCOCC2)c(=O)n4C)cn1 [AZD0156] (first compound max 0.3 µM, 7x7, partner max 1 µM) | 0.0502 | 0.0006 | 0.0129 | 0.0156 | 0.0776 | 0.0403 | 0.0033 | -0.0019 | -0.0621 | 0.0485 | 0.0736 | 0.018 | 0.0183 | 0.034 | 0.11 | 0.0587 | -0.0056 | -0.028 | 0.0031 | -0.0099 |
| COc1cccc(OCCCN)c1-c1cc(Nc2cnc(C#N)cn2)n[nH]1 [Prexasertib] + C[C@@H]1COCCN1C2=NC(=NC(=C2)C3(CC3)[S@](=N)(=O)C)C4=C5C=CNC5=NC=C4 [AZD6738] (first compound max 1 µM, 7x7, partner max 10 µM) | -0.0716 | -0.0066 | -0.0432 | -0.0625 | 0.0367 | 0.0209 | 0.0051 | -0.0334 | -0.0612 | 0.0072 | -0.0542 | 0.0022 | -0.0001 | 0.049 | 0.013 | -0.0434 | -0.0348 | -0.0402 | -0.0065 | -0.0173 |
| COc1cccc(OCCCN)c1-c1cc(Nc2cnc(C#N)cn2)n[nH]1 [Prexasertib] + CCc1c2c(nc3ccc(O)cc13)-c1cc3c(c(=O)n1C2)COC(=O)[C@]3(O)CC [SN-38] (first compound max 1 µM, 7x7, partner max 0.3 µM) | 0.022 | -0.0308 | 0.0825 | -0.0493 | 0.0552 | -0.0649 | -0.003 | 0.0296 | -0.0213 | -0.0495 | -0.0375 | -0.0688 | -0.0185 | -0.0633 | 0.0603 | -0.0569 | -0.0566 | -0.0618 | -0.0364 | -0.0528 |
| CN(C)CCCOc1ccc(-c2ccc3ncc4c(c3c2)n(C2CCOCC2)c(=O)n4C)cn1 [AZD0156] + C=CCn1c(=O)c2cnc(Nc3ccc(N4CCN(C)CC4)cc3)nc2n1-c1cccc(C(C)(C)O)n1 [AZD1775] (first compound max 1 µM, partner max 1 µM) | 0.0041 | -0.0616 | 0.022 | -0.0372 | -0.0671 | -0.095 | -0.0623 | -0.0389 | -0.016 | -0.071 | -0.0545 | -0.0025 | -0.0811 | -0.0561 | -0.0262 | -0.0934 | -0.033 | -0.118 | -0.0059 | -0.0284 |
| Cn1cnc2c(F)c(Nc3ccc(Br)cc3Cl)c(C(=O)NOCCO)cc21 [Selumetinib] + CC(C)n1c(=O)n(C)c2cnc3cc(F)c(-c4ccc(OCCCN5CCCCC5)nc4)cc3c21 [AZD1390] (first compound max 10 µM, 7x7, partner max 0.3 µM) | -0.0349 | -0.0246 | 0.0093 | 0.0102 | -0.0388 | -0.0538 | -0.0394 | -0.0504 | 0.005 | -0.0541 | -0.0567 | 0.0125 | -0.0054 | -0.0436 | -0.0102 | -0.0477 | -0.0388 | -0.03 | -0.0355 | -0.0369 |
| CC1(C)CCC(CN2CCN(c3ccc(C(=O)NS(=O)(=O)c4ccc(NCC5CCOCC5)c([N+](=O)[O-])c4)c(Oc4cnc5[nH]ccc5c4)c3)CC2)=C(c2ccc(Cl)cc2)C1 [Venetoclax] + Cn1cnc2c(F)c(Nc3ccc(Br)cc3Cl)c(C(=O)NOCCO)cc21 [Selumetinib] (first compound max 1 µM, 7x7, partner max 3 µM) | -0.0539 | -0.0254 | -0.0814 | 0.0617 | -0.0356 | -0.0091 | -0.0303 | -0.028 | 0.0147 | -0.0207 | -0.0293 | -0.004 | -0.0399 | -0.0297 | -0.0414 | -0.0135 | -0.0482 | -0.0588 | -0.0674 | 0.0027 |
| CCN(CCO)CCCOc1ccc2c(Nc3cc(CC(=O)Nc4cccc(F)c4)[nH]n3)ncnc2c1 [AZD2811] + C=CCn1c(=O)c2cnc(Nc3ccc(N4CCN(C)CC4)cc3)nc2n1-c1cccc(C(C)(C)O)n1 [AZD1775] (first compound max 1 µM, partner max 1 µM) | -0.0176 | -0.0166 | 0.0847 | 0.0686 | 0.0302 | -0.0367 | -0.0158 | 0.0566 | 0.0437 | -0.0831 | 0.0168 | -0.0267 | -0.0211 | -0.0352 | -0.0367 | 0.0112 | -0.0014 | -0.0603 | 0.0173 | 0.088 |
| CC1(C)CCC(CN2CCN(c3ccc(C(=O)NS(=O)(=O)c4ccc(NCC5CCOCC5)c([N+](=O)[O-])c4)c(Oc4cnc5[nH]ccc5c4)c3)CC2)=C(c2ccc(Cl)cc2)C1 [Venetoclax] + C[C@@H]1COCCN1C2=NC(=NC(=C2)C3(CC3)[S@](=N)(=O)C)C4=C5C=CNC5=NC=C4 [AZD6738] (first compound max 1 µM, 7x7, partner max 10 µM) | -0.045 | -0.0313 | -0.0015 | -0.0035 | -0.0511 | -0.0368 | -0.0167 | -0.0372 | 0.0024 | -0.0511 | -0.0355 | -0.0067 | -0.112 | 0.0003 | -0.0365 | -0.0361 | -0.0224 | -0.117 | -0.0075 | -0.0548 |
| COc1cccc(OCCCN)c1-c1cc(Nc2cnc(C#N)cn2)n[nH]1 [Prexasertib] + C=CCn1c(=O)c2cnc(Nc3ccc(N4CCN(C)CC4)cc3)nc2n1-c1cccc(C(C)(C)O)n1 [AZD1775] (first compound max 1 µM, partner max 1 µM) | 0.0613 | 0.0932 | 0.0167 | -0.0174 | 0.0259 | 0.06 | 0.165 | 0.0877 | 0.0991 | 0.0576 | 0.0437 | 0.0163 | 0.0294 | 0.0705 | 0.0478 | 0.0199 | 0.0632 | -0.0566 | -0.0059 | 0.155 |
| CN(C)CCCOc1ccc(-c2ccc3ncc4c(c3c2)n(C2CCOCC2)c(=O)n4C)cn1 [AZD0156] + CCN(CCO)CCCOc1ccc2c(Nc3cc(CC(=O)Nc4cccc(F)c4)[nH]n3)ncnc2c1 [AZD2811] (first compound max 1 µM, 7x7, partner max 1 µM) | 0.0049 | -0.0198 | -0.0063 | 0.0105 | 0.0091 | -0.0279 | -0.0539 | -0.0119 | 0.0021 | -0.0251 | -0.0335 | -0.0343 | -0.0126 | -0.0171 | -0.0064 | -0.0223 | -0.0076 | -0.04 | 0.0178 | 0.0336 |
| C=CCn1c(=O)c2cnc(Nc3ccc(N4CCN(C)CC4)cc3)nc2n1-c1cccc(C(C)(C)O)n1 [AZD1775] + C[C@@H]1COCCN1C2=NC(=NC(=C2)C3(CC3)[S@](=N)(=O)C)C4=C5C=CNC5=NC=C4 [AZD6738] (first compound max 1 µM, partner max 10 µM) | 0.019 | -0.0089 | -0.0004 | 0.0203 | 0.0434 | -0.0536 | 0.0143 | 0.0764 | -0.0083 | -0.0317 | -0.0421 | 0.0092 | 0.0157 | 0.0176 | 0.0144 | -0.0399 | 0.0368 | -0.0127 | 0.0388 | 0.0221 |
| Cc1c2c(nn1C)CSCc1cc(n(C)n1)CSc1cc(c3ccccc3c1)OCCCc1c(C(=O)O)n(C)c3c-2c(Cl)ccc13 [AZD5991] + C[C@@H](Nc1cc(F)cc(F)c1)c1cc(C(=O)N(C)C)cc2c(=O)cc(N3CCOCC3)oc12 [AZD8186] (first compound max 1 µM, 7x7, partner max 3 µM) | -0.0024 | -0.0318 | -0.0335 | 0.0024 | -0.0305 | -0.0029 | -0.0139 | -0.0396 | 0.0418 | -0.0168 | -0.0051 | -0.0256 | -0.0351 | 0.0043 | -0.0298 | -0.0361 | -0.0348 | -0.0238 | -0.0325 | -0.0049 |
| CC1(C)CCC(CN2CCN(c3ccc(C(=O)NS(=O)(=O)c4ccc(NCC5CCOCC5)c([N+](=O)[O-])c4)c(Oc4cnc5[nH]ccc5c4)c3)CC2)=C(c2ccc(Cl)cc2)C1 [Venetoclax] + Cc1cc2ncnn2cc1Nc1ncc2c(n1)n(C1CCOCC1)c(=O)n2C [AZD7648] (first compound max 1 µM, 7x7, partner max 10 µM) | -0.0511 | -0.0394 | -0.0146 | -0.025 | -0.0069 | -0.0313 | -0.04 | 0.0072 | 0.0266 | -0.0467 | -0.0172 | -0.0087 | -0.046 | 0.0286 | -0.0452 | -0.0072 | -0.0771 | -0.0259 | -0.0288 | -0.03 |
